Measured values from article PMC10377513, “Goldilocks Dilemma: LPS Works Both as the Initial Target and a Barrier for the Antimicrobial Action of Cationic AMPs on E. coli” (Biomolecules, 2023).
In brackets after ≈: the same amount, converted by molar mass. Residues, ends and D or L forms follow the SMILES beside them.

Legend:
E. coli ATCC 25922 = conditions: CLSI guidelines, MHBII; cited from earlier work
Experimental: Table 1 MIC and ζ potentials for the tested peptides against P. aeruginosa, S. aureus, and the three E. coli strains: ATCC 25922, LPS deficient—NR 698, and colistin-resistant CCUG 70662, which was tested after cultivation with (+) and without (−) 4 µg/mL of colistin, which caused a decrease of negative charge of the cell wall. MIC values for P. aeruginosa, S. aureus, and E. coli ATCC 25922 are rep | column: MIC (µg/mL) / E. coli ATCC 25922

[1] = SPR, L1 chip, Biacore T200, room temperature, DMPC liposomes, 10 mM HEPES pH 7.4, 150 mM NaCl, steady-state fit; cited from earlier work
From the text: Introducing 5% of a negatively charged component (DMPG) to the liposomes doubled the KP of all peptides except c(WKWKWK), where the increase was less substantial.

[2] = SPR partitioning into immobilized liposomes; type: binding, E. coli; conditions: DMPC liposomes with 10% LPS versus DMPC and DMPC:PG
Experimental: The large unilamellar liposomes of DMPC and DMPC:PG (95:5) were prepared for the SPR experiment using standard methods. In brief, lipid mixtures were weighted from dry powder (Avanti, USA) and dissolved in 3:1 dichloromethane:methanol mixtures. The organic mixture was dried in a vacuum rotavapor to form a lipid film which was hydrated to 20 mM total concentration of lipids (for DMPC and DMPC:PG mixture) by adding 10 mM HEPES buffer pH 7.4 with 150 mM NaCl. For DMPC:LPS mixtures, dried LPS was dissolved in water and mixed with DMPC dissolved in dichloromethane. Isopropanol was added to the mixture until only one phase—dichloromethane:isopropanol:water was formed. Dry film was prepared and then hydrated using the same method as above to a concentration of 18 mM of DMPC and 10% (w/w) LPS in HEPES buffer. […]
The SPR experiments were performed at room temperature using the L1 chip and T200 Biacore instrument (GE Healthcare, Chicago, IL, USA). […] KD was obtained Using Equation (1) from a standard steady-state fit:(1) RU=RUMAX/1+KD/[P]+off, where RU is measured SPR response; RUMAX is RU response during saturation; [P] is peptide concentration; and off is offset of response. […]
SPR is emerging as the method of choice for measuring the partitioning of small compounds into lipid bilayers. […] From the estimated KD and the measured koff values, the association rate kon can be calculated (Equation (5)). […]

P. aeruginosa ATCC 27853 = conditions: CLSI guidelines, MHBII; cited from earlier work
Experimental: Table 1 MIC and ζ potentials for the tested peptides against P. aeruginosa, S. aureus, and the three E. coli strains: ATCC 25922, LPS deficient—NR 698, and colistin-resistant CCUG 70662, which was tested after cultivation with (+) and without (−) 4 µg/mL of colistin, which caused a decrease of negative charge of the cell wall. MIC values for P. aeruginosa, S. aureus, and E. coli ATCC 25922 are rep | column: MIC (µg/mL) / P. aeruginosa ATCC 27853

E. coli NR 698 = conditions: LPS deficient strain; CLSI guidelines, MHBII
Experimental: (§1) The bacterial strains tested were E. coli ATCC 25922, E. coli […], and E. coli NR-698. The MIC assays followed the CLSI guidelines. Overnight cultures and MIC assays were performed in MHBII (212322, Becton, Dickson and Company, Sparks, MD, USA). In addition, E. coli […] was tested after cultivation with 4 µg/mL of colistin to induce alternation in surface charge.
(§2) The antimicrobial activity of the five cyclic cationic AMPs was determined against S. aureus, P. aeruginosa, and three strains of E. coli: ATCC 25922, LPS colistin-resistant strain CCUG 70662, and LPS deficient strain NR 698 (Table 1). CCUG 70662 was cultivated in two conditions, both in the absence (−) and in the presence (+) of colistin (4 µg/mL). Resistance development can be monitored by measuring changes in the ζ-potential, reflecting the overall charge of the bacteria. […] In the NR 698 strain, translocation of LPS from the periplasmic space to the outer leaflet is hindered.

E. coli CCUG 70662 = system: E. coli CCUG 70662
Experimental: as §1, §2

S. aureus ATCC 9144 = conditions: CLSI guidelines, MHBII; cited from earlier work
Experimental: Table 1 MIC and ζ potentials for the tested peptides against P. aeruginosa, S. aureus, and the three E. coli strains: ATCC 25922, LPS deficient—NR 698, and colistin-resistant CCUG 70662, which was tested after cultivation with (+) and without (−) 4 µg/mL of colistin, which caused a decrease of negative charge of the cell wall. MIC values for P. aeruginosa, S. aureus, and E. coli ATCC 25922 are rep | column: MIC (µg/mL) / S. aureus ATCC 9144

[3] = system: E. coli ATCC 25922 lysate; experiment: NMR line shape analysis with sonicated cell lysate; type: binding; conditions: ATCC 25922 lysate versus live cells
Experimental: (§3) NMR spectra were acquired on a Bruker Avance III HD spectrometer operating at 600 MHz for ^1H, equipped with an inverse TCl cryo probe. All NMR spectra were acquired at 298 K using 5 mm tubes using standard pulse programs.
(§4) E. coli strains ATCC 25922, CCUG 70662, and NR 698 were grown until OD600 ≈ 0.6–0.8 in standard Lysogeny Broth at 37 °C from overnight colonies on agar plates. This allowed bacterial cultures to reach an exponential state of growth. CCUG 70662 was cultivated with and without 4 µg/mL of colistin in both agar and broth to allow for modification of the lipid A part of LPS [33]. After that, cells were carefully centrifuged by 6000× g for 10 min, the supernatant was discarded, and the cell pellet was resuspended in 10 mM Tris buffer with 100 mM NaCl and pH 7.4. The process was repeated two more times to wash out broth components and leftover colistin. […] The part of samples was diluted to OD = 1 in Tris buffer, and zeta potential was measured on Malvern Zetasizer Nano (Malvern Ins., Malvern, UK). […]
(§5) For the live cell NMR, the same E. coli strains as for the MIC testing (see above) were used. […] To measure the initial AMP:bacterial cell binding, we titrated an increasing number of cells into a known and fixed concentration of AMP and monitored the signal attenuation of the peptide (Figure 4A,B). […]

[4] = system: E. coli NR 698 live cells; experiment: Live cell NMR (1H signal attenuation on cell titration); type: binding; conditions: E. coli NR 698 cells titrated into 1 mg/mL peptide, Tris buffer pH 7.4, 298 K; KD in estimated lipid concentration, Shortridge fit; read-out: KD from live cell NMR
Experimental: as §3, §4, §5

[5] = system: E. coli ATCC 25922 live cells; experiment: as above; type: binding; conditions: E. coli ATCC 25922 cells titrated into 1 mg/mL peptide, Tris buffer pH 7.4, 298 K; KD in estimated lipid concentration, Shortridge fit; read-out: KD from live cell NMR
Experimental: as §3, §4, §5

## CC(C)C[C@@H]1NC(=O)[C@@H](CCCNC(=N)N)NC(=O)[C@H](CCCCN)NC(=O)[C@H](CC(N)=O)NC(=O)[C@@H](Cc2c[nH]c3ccccc23)NC(=O)[C@H](Cc2c[nH]c3ccccc23)NC1=O [c(LWwNKr)] (HELM PEPTIDE1{L.W.[dW].N.K.[dR]}$PEPTIDE1,PEPTIDE1,1:R1-6:R2$$$V2.0)
E. coli ATCC 25922
  MIC E. coli ATCC 25922: >250 µg/mL
[1]
  Partitioning constant KP: 278
[2]
  Increase in KP with DMPC:LPS compared to the DMPC and DMPC:PG constructs: four-fold
P. aeruginosa ATCC 27853
  MIC P. aeruginosa ATCC 27853: >250 µg/mL
E. coli NR 698
  MIC E. coli NR 698: 32 µg/mL (≈ 36.2 µM)
E. coli CCUG 70662
  MIC E. coli CCUG 70662+: >250 µg/mL
  MIC E. coli CCUG 70662−: >250 µg/mL
S. aureus ATCC 9144
  MIC S. aureus ATCC 9144: >250 µg/mL

## NCCCC[C@@H]1NC(=O)[C@H](Cc2c[nH]c3ccccc23)NC(=O)[C@H](CCCCN)NC(=O)[C@H](Cc2c[nH]c3ccccc23)NC(=O)[C@H](CCCCN)NC(=O)[C@H](Cc2c[nH]c3ccccc23)NC1=O [c(WKWKWK)] (HELM PEPTIDE1{W.K.W.K.W.K}$PEPTIDE1,PEPTIDE1,1:R1-6:R2$$$V2.0)
E. coli ATCC 25922
  MIC E. coli ATCC 25922: 64 µg/mL (≈ 67.9 µM)
P. aeruginosa ATCC 27853
  MIC P. aeruginosa ATCC 27853: >250 µg/mL
E. coli NR 698
  MIC E. coli NR 698: 4 µg/mL (≈ 4.24 µM)
E. coli CCUG 70662
  MIC E. coli CCUG 70662+: 64 µg/mL (≈ 67.9 µM)
  MIC E. coli CCUG 70662−: 64 µg/mL (≈ 67.9 µM)
S. aureus ATCC 9144
  MIC S. aureus ATCC 9144: 128 µg/mL (≈ 136 µM)

## N=C(N)NCCC[C@@H]1NC(=O)[C@H](Cc2c[nH]c3ccccc23)NC(=O)[C@H](CCCNC(=N)N)NC(=O)[C@H](Cc2c[nH]c3ccccc23)NC(=O)[C@H](CCCNC(=N)N)NC(=O)[C@H](Cc2c[nH]c3ccccc23)NC1=O [c(WRWRWR)] (HELM PEPTIDE1{W.R.W.R.W.R}$PEPTIDE1,PEPTIDE1,1:R1-6:R2$$$V2.0)
E. coli ATCC 25922
  MIC E. coli ATCC 25922: 32 µg/mL (≈ 31.2 µM)
[3]
  Increase in KD after sonication (lysate versus live cell ATCC 25922): two-fold
[4]
  Kd: > 500 µM
[5]
  Kd: 50 to 200 µM
P. aeruginosa ATCC 27853
  MIC P. aeruginosa ATCC 27853: 64 µg/mL (≈ 62.3 µM)
E. coli NR 698
  MIC E. coli NR 698: 2 µg/mL (≈ 1.95 µM)
E. coli CCUG 70662
  MIC E. coli CCUG 70662+: 32 µg/mL (≈ 31.2 µM)
  MIC E. coli CCUG 70662−: 16 µg/mL (≈ 15.6 µM)
S. aureus ATCC 9144
  MIC S. aureus ATCC 9144: 32 µg/mL (≈ 31.2 µM)

## NCCCC[C@@H]1NC(=O)[C@H](CCCCN)NC(=O)[C@H](Cc2c[nH]c3ccccc23)NC(=O)[C@H](Cc2c[nH]c3ccccc23)NC(=O)[C@H](Cc2c[nH]c3ccccc23)NC(=O)[C@H](CCCCN)NC1=O [c(WWWKKK)] (HELM PEPTIDE1{W.W.W.K.K.K}$PEPTIDE1,PEPTIDE1,1:R1-6:R2$$$V2.0)
E. coli ATCC 25922
  MIC E. coli ATCC 25922: 8 µg/mL (≈ 8.48 µM)
P. aeruginosa ATCC 27853
  MIC P. aeruginosa ATCC 27853: 32 µg/mL (≈ 33.9 µM)
E. coli NR 698
  MIC E. coli NR 698: 2 µg/mL (≈ 2.12 µM)
E. coli CCUG 70662
  MIC E. coli CCUG 70662+: 4 µg/mL (≈ 4.24 µM)
  MIC E. coli CCUG 70662−: 4 µg/mL (≈ 4.24 µM)
S. aureus ATCC 9144
  MIC S. aureus ATCC 9144: 32 µg/mL (≈ 33.9 µM)

## N=C(N)NCCC[C@@H]1NC(=O)[C@H](CCCNC(=N)N)NC(=O)[C@H](Cc2c[nH]c3ccccc23)NC(=O)[C@H](Cc2c[nH]c3ccccc23)NC(=O)[C@H](Cc2c[nH]c3ccccc23)NC(=O)[C@H](CCCNC(=N)N)NC1=O [c(WWWRRR)] (HELM PEPTIDE1{W.W.W.R.R.R}$PEPTIDE1,PEPTIDE1,1:R1-6:R2$$$V2.0)
E. coli ATCC 25922
  MIC E. coli ATCC 25922: 8 µg/mL (≈ 7.79 µM)
[1]
  Partitioning constant KP: 6649
P. aeruginosa ATCC 27853
  MIC P. aeruginosa ATCC 27853: 16 µg/mL (≈ 15.6 µM)
E. coli NR 698
  MIC E. coli NR 698: 4 µg/mL (≈ 3.89 µM)
E. coli CCUG 70662
  MIC E. coli CCUG 70662+: 8 µg/mL (≈ 7.79 µM)
  MIC E. coli CCUG 70662−: 8 µg/mL (≈ 7.79 µM)
S. aureus ATCC 9144
  MIC S. aureus ATCC 9144: 4 µg/mL (≈ 3.89 µM)
